Experimental data from patent US20160193216A1 (Nimbus Iris, Inc., priority 2012, published 2016).
Read-outs that look alike come from different tables or passages of the source.

Key:
[1] = system: THP-1 cells; assay: LPS induced cytokine (TNFα and IL8) production assay in THP-1 cells; type: cell-based; conditions: Homo sapiens, 300 ng/mL LPS
Outline: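 THP-1 cells (100,000/well) pre-incubated 1 hour with compound in 0.3% DMSO, then stimulated with 300 ng/mL LPS. TNFα and IL8 in supernatant measured by HTRF at 5 hours; IL8 and viability also at 16 hours.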

[2] = system: Whole Blood; assay: In vitro LPS/R848-induced cytokine production assay in whole blood; type: cell-based, human
Protocol: (§1) In Vitro LPS/R848/CpG-Induced Cytokine Production Assays in hPBMC or Whole Blood
(§2) Compounds of the present invention were also studied in in vitro LPS/R848/CpG-induced cytokine production assays. Exemplary protocols follow.
(§3) […] Cells were seeded in a 96-well plate with 130 ul/well of the cell suspension according to the plate map. 9 ul of 30 mM compound solution was added into the wells in the assigned rows, then serial solutions with 4× dilutions were made. That is, add 9 uL of 100% DMSO into each of the rest wells and take 3 uL of compound solution from the one-step higher concentration solution and mix well with the DMSO. For the second compound master plate, 196 uL of the growth medium (no serum media) were added into each of the wells and 4 uL of the compound solution from the first compound master plate was added and mixed with the media. Cells were treated for 0.5 h by adding 20 uL of the compound and the control solutions prepared in the second master plate to each well according to the plate map. […] Plates were sealed with sealing films and the plates were centrifuged at 3000 rpm at 4 degrees C. for 5 min. The supernatants were transferred, and 100 ul of working Capture antibody solution was added to each well. The plates were sealed and incubated overnight at RT. IL-6, IFN-α or TNF-α detection antibody labeled with biotin: Added 100 uL of the Detection Antibody solution to each well. Covered the plate and incubated for 2 h at RT. Added 100 uL of Streptavidin-HRP solution to each well. Covered the plate and incubate for 20 min at RT in dark. Added 100 uL of Substrate Solution to each well. Incubated for 20 min at RT in dark. Added 50 uL of Stop Solution to each well. Gently tapped the plate to ensure thorough mixing. Determined the optical density of each well immediately, using a microplate reader set to 450 nm and also read at 540 nm or 570 nm for correction if wavelength correction is not available.

[3] = target: T1, IRAK4 (Homo sapiens, UniProt Q9NWZ3); assay: IRAK-4 activity inhibition assay (Caliper); type: biochemical; conditions: 37 μM ATP, 3.5 nM IRAK4
T1 sequence (Q9NWZ3 1-460): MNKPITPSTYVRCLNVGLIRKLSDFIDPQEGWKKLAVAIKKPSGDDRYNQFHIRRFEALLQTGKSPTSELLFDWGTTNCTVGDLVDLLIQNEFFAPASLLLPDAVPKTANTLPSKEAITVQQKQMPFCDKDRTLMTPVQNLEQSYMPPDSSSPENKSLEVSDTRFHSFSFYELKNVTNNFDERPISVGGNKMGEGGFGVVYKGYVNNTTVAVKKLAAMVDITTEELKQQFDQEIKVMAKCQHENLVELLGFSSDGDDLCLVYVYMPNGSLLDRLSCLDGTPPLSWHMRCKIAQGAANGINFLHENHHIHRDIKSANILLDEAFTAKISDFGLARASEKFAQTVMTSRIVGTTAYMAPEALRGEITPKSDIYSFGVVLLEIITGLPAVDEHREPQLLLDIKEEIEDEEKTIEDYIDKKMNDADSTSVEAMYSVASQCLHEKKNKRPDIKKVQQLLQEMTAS

[4] = system: hPBMC; assay: In vitro LPS/R848/CpG/IL-1β-induced cytokine production assay in hPBMC; type: cell-based; conditions: Homo sapiens
Protocol: as §1, §2, §3

[5] = system: collagen-induced arthritis; assay: In vivo murine collagen-induced arthritis model; conditions: DBA mice, intraperitoneally 30 mg/kg twice a day, vs vehicle
Protocol: In Vivo Murine Collagen-Induced Arthritis Model Compounds of the present invention were also evaluated in mice in an in vivo efficacy model for inhibiting IRAK4-mediated arthritis. An exemplary protocol for this assay follows. Male DBA mice were immunized with collagen on day 0 and day 21 and randomly enrolled into groups upon onset of disease. […] Eight mice were enrolled per group with the exception of the naïve control group, which contained four mice. Day 1 was designated as the first treatment day, and mice were evaluated daily for clinical scores until day 11. The mice were weighed on alternating days.

[6] = system: OCI-Ly10 cells; assay: In vivo murine xenograft tumor model of human ABC DLBCL lymphoma; conditions: NOD/SCID mice
Protocol: In Vivo Murine Tumor Model of Human ABC DLBCL Lymphoma
Compounds of the present invention were also evaluated in a xenograft tumor model of human ABC DLBCL lymphoma first described and disclosed in Staudt et al. (2012). The tumor was established by subcutaneous injection of OCI-Ly10 cells into immunodeficient (NOD/SCID) mice. […] Tumor growth was monitored by measuring tumor size in two orthogonal directions. The tumor volume was calculated by using the formula (1/2)(long dimension)×(short dimension)^2.

[7] = system: ABC DLBCL cell lines; assay: Cell viability assay, combination with ibrutinib; type: cell-based
Protocol: Compounds of the present invention were also evaluated in a cell viability assay.

[8] = system: ABC DLBCL Cells; assay: sensitization of ABC DLBCL cells to IRAK inhibitors by BTK knockdown; type: cell-based; conditions: BTK knockdown (FIG. 9)
Excerpt: FIG. 8 depicts the sensitization of ABC DLBCL Cells to IRAK Inhibitors by BTK knockdown.

[9] = system: GCB DLBCL Cells; assay: sensitization of GCB DLBCL cells by BTK knockdown; type: cell-based; conditions: BTK knockdown (FIG. 10)
[10] = Homo sapiens, LPS 0.1 ug/mL, read-out: TNF-α production IC50
[11] = Homo sapiens, R848 1 uM, read-out: IFN-α production IC50
[12] = R848 1 uM, read-out: TNF-α production IC50
[13] = Homo sapiens, LPS 0.1 ug/mL, read-out: IL-6 production IC50
[14] = LPS 0.01 ug/mL, read-out: IL-6 production IC50
[15] = LPS 0.01 ug/mL, read-out: TNF-α production IC50

What does the source list for CN(CC(=O)N1CCCC1)[C@H]1CC[C@H](Oc2ncnc3sc4c(c23)[C@@H](CC(N)=O)CC4)CC1 [Compound I-73, 2-[(3R)-12-[(4-[methyl[2-oxo-2-(pyrrolidin-1-yl)ethyl]amino]cyclohexyl)oxy]-7-thia-9,11-diazatricyclo[6.4.0.0[2,6]]dodeca-1(8),2(6),9,11-tetraen-3-yl]acetamide]?
IC50 ([1]; read-out: IL8 production IC50): 1000 to 5000 nM; IC50 ([1]; read-out: TNFα production IC50): 1000 to 5000 nM; IC50 [2, 10]: ≥ 1000 nM; IC50 [3]: < 5000 nM

What does the source list for CN(C)[C@H]1CC[C@H](Oc2ncnc3sc4c(c23)C[C@@H](C(N)=O)CC4)CC1 [Compound I-233, (12S)-3-[[4-(dimethylamino)cyclohexyl]oxy]-8-thia-4,6-diazatricyclo[7.4.0.0[2,7]]trideca-1(9),2(7),3,5-tetraene-12-carboxamide]?
IC50 ([1]; read-out: IL8 production IC50): ≤ 500 nM; IC50 ([1]; read-out: TNFα production IC50): ≤ 500 nM; IC50 [2, 10]: ≥ 1000 nM; IC50 [2, 11]: ≥ 1000 nM; IC50 [2, 12]: ≥ 1000 nM; IC50 [3]: < 5000 nM

Which IC50 ([1]; read-out: IL8 production IC50) does the source give for CN[C@H]1CC[C@H](Oc2ncnc3sc4c(c23)[C@@H](CC(N)=O)CC4)CC1 [Compound I-79, 2-[(3R)-12-[[4-(methylamino)cyclohexyl]oxy]-7-thia-9,11-diazatricyclo[6.4.0.0̂[2,6]]dodeca-1(8),2(6),9,11-tetraen-3-yl]acetamide] here?
The IC50 was 500 to 1000 nM.

And the IC50 ([1]; read-out: TNFα production IC50)?
The IC50 was 1000 to 5000 nM.

What about the IC50 [2, 13] of the same compound?
The IC50 was at least 1000 nM.

And the IC50 [2, 10]?
Its IC50 is at least 1000 nM.

And the IC50 [4, 14]?
The IC50 was at least 1000 nM.

What about the IC50 [4, 15] of the same compound?
Its IC50 is at least 1000 nM.

And the IC50 [3]?
The IC50 was under 5000 nM.

Which results are given for Cn1cc(Nc2nc(O[C@H]3CC[C@H](N(C)C)CC3)c3c4c(sc3n2)CCC4CC(N)=O)cn1 (stereo in doubt) [Compound I-224, 2-[(3S)-12-[[4-(dimethylamino)cyclohexyl]oxy]-10-[(1-methyl-1H-pyrazol-4-yl)amino]-7-thia-9,11-diazatricyclo[6.4.0.0[2,6]]dodeca-1(8),2(6),9,11-tetraen-3-yl]acetamide]?
IC50 ([1]; read-out: IL8 production IC50): ≤ 500 nM; IC50 ([1]; read-out: TNFα production IC50): ≤ 500 nM; IC50 [2, 10]: ≥ 1000 nM; IC50 [2, 11]: ≥ 1000 nM

NC(=O)C[C@H]1CCc2sc3ncnc(O[C@H]4CC[C@H](N5CCCC5)CC4)c3c21 [Compound I-105, 2-[(3R)-12-[[4-(pyrrolidin-1-yl)cyclohexyl]oxy]-7-thia-9, 11-diazatricyclo[6.4.0.0[2,6]]dodeca-1(8),2(6),9, 11-tetraen-3-yl]acetamide] was tested. Which IC50 ([1]; read-out: IL8 production IC50) did it give?
The IC50 was at most 500 nM.

And the IC50 ([1]; read-out: TNFα production IC50)?
Its IC50 is 500 to 1000 nM.

What about the IC50 [2, 10] of the same compound?
Its IC50 is at least 1000 nM.

And the IC50 [3]?
The IC50 was under 5000 nM.

What does the source list for NC(=O)[C@H]1CCc2sc3ncnc(O[C@H]4CC[C@H](N5CCOCC5)CC4)c3c2C1 [Compound I-220, (12S)-3-[[4-(morpholin-4-yl)cyclohexyl]oxy]-8-thia-4,6-diazatricyclo[7.4.0.0[2,7]]trideca-1(9),2(7),3,5-tetraene-12-carboxamide]?
IC50 ([1]; read-out: IL8 production IC50): ≤ 500 nM; IC50 ([1]; read-out: TNFα production IC50): ≤ 500 nM; IC50 [2, 10]: ≥ 1000 nM; IC50 [2, 11]: ≥ 1000 nM; IC50 [2, 12]: ≥ 1000 nM; IC50 [3]: < 5000 nM

With Cn1cc(Nc2nc(O[C@H]3CC[C@H](N4CCOCC4)CC3)c3c4c(sc3n2)CC[C@@H]4CC(N)=O)cn1 [Compound I-235] as the compound, how does the IC50 ([1]; read-out: IL8 production IC50) read?
Its IC50 is at most 500 nM.

And the IC50 ([1]; read-out: TNFα production IC50)?
Its IC50 is at most 500 nM.

And the IC50 [2, 10]?
Its IC50 is at least 1000 nM.

And the IC50 [2, 11]?
Its IC50 is at least 1000 nM.

NC(=O)[C@@H](O)C[C@H]1CCc2sc3ncnc(O[C@H]4CC[C@H](N5CCOCC5)CC4)c3c21 [Compound I-92, (S)-2-hydroxy-3-((R)-4-(((1r,4R)-4-morpholinocyclohexyl)oxy)-6,7-dihydro-5H-cyclopenta[4,5]thieno[2,3-d]pyrimidin-5-yl)propanamide] was tested. Which IC50 ([1]; read-out: IL8 production IC50) did it give?
Its IC50 is at most 500 nM.

What about the IC50 ([1]; read-out: TNFα production IC50) of the same compound?
Its IC50 is at most 500 nM.

What about the IC50 [2, 13] of the same compound?
The IC50 was at most 250 nM.

And the IC50 [2, 10]?
The IC50 was 500 to 1000 nM.

And the IC50 [2, 11]?
The IC50 was 500 to 1000 nM.

What about the IC50 [2, 12] of the same compound?
The IC50 was 500 to 1000 nM.

What about the “Clinical scores, collagen-induced arthritis” value [5] of the same compound?
The value was “efficacious compared to the vehicle”.

And the IC50 ([4]; CpG 0.1 uM, read-out: IFN-α production IC50)?
Its IC50 is 250 to 500 nM.

What about the IC50 ([4]; CpG 0.5 uM, read-out: TNF-α production IC50) of the same compound?
The IC50 was at most 250 nM.

And the IC50 ([4]; IL-1β 1 ng/mL, read-out: IL-6 production IC50)?
Its IC50 is at most 250 nM.

What about the IC50 [4, 14] of the same compound?
The IC50 was at most 250 nM.

And the IC50 [4, 15]?
The IC50 was at most 250 nM.

And the IC50 [4, 12]?
Its IC50 is at most 250 nM.

And the “ABC lymphoma growth (tumor volume)” value [6]?
Its value is “reduces ABC lymphoma growth”.

What about the “Tolerability in the animals” value [6] of the same compound?
Its value is “well tolerated”.

What about the “Killing of ABC DLBCL cells in combination with ibrutinib” value [7] of the same compound?
The value was “Synergistic killing”.

What about the “sensitization of ABC DLBCL Cells to compound by BTK knockdown” value [8] of the same compound?
Its value is “sensitization”.

And the “sensitization of GCB DLBCL Cells to compound by BTK Knockdown” value [9]?
The value was “lack of sensitization”.

For CCN[C@H]1CC[C@H](Oc2ncnc3sc4c(c23)[C@@H](CC(N)=O)CC4)CC1 [Compound I-85, 2-((R)-4-(((1r,4R)-4-(ethylamino)cyclohexyl)oxy)-6,7-dihydro-5H-cyclopenta[4,5]thieno[2,3-d]pyrimidin-5-yl)acetamide], which IC50 ([1]; read-out: IL8 production IC50) is on record?
Its IC50 is 500 to 1000 nM.

And the IC50 ([1]; read-out: TNFα production IC50)?
Its IC50 is 500 to 1000 nM.

And the IC50 [2, 10]?
Its IC50 is at least 1000 nM.

And the IC50 [3]?
Its IC50 is under 5000 nM.

Which IC50 ([1]; read-out: IL8 production IC50) does the source give for C[C@H](O)C[C@H]1CCc2sc3ncnc(O[C@H]4CC[C@H](N(C)C)CC4)c3c21 [Compound I-40, (2S)-1-[(3R)-12-[[4-(dimethylamino)cyclohexyl]oxy]-7-thia-9,11-diazatricyclo[6.4.0.0[2,61]]dodeca-1(8),2(6),9,11-tetraen-3-yl]propan-2-ol] here?
Its IC50 is 1000 to 5000 nM.

And the IC50 ([1]; read-out: TNFα production IC50)?
Its IC50 is 1000 to 5000 nM.

And the IC50 [3]?
The IC50 was under 5000 nM.
